According to publication PMC8775935, “Chebulinic Acid Suppresses Adipogenesis in 3T3-L1 Preadipocytes by Inhibiting PPP1CB Activity” (International Journal of Molecular Sciences, 2022):

Target: protein phosphatase-1 catalytic subunit beta (PPP1CB) (Homo sapiens, UniProt P62140)
Experiment: DiFMUP fluorescence phosphatase assay, dose-response
Format: biochemical

Chain of protein phosphatase-1 catalytic subunit beta (PPP1CB) (P62140 1-266): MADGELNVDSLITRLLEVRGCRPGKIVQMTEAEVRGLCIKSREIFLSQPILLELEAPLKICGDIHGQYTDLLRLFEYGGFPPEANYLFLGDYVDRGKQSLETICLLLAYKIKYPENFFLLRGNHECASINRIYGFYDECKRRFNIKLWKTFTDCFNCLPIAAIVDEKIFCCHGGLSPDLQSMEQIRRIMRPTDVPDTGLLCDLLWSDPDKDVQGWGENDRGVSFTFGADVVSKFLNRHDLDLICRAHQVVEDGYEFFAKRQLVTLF

Compound: O=C(O)C[C@@H]1C(=O)O[C@H]2[C@H](OC(=O)c3cc(O)c(O)c(O)c3)[C@@H](OC(=O)c3cc(O)c(O)c4c3[C@H]1[C@H](O)C(=O)O4)[C@H](OC(=O)c1cc(O)c(O)c(O)c1)O[C@@H]2COC(=O)c1cc(O)c(O)c(O)c1 [compound 147, chebulinic acid]
- IC50: 0.3 µM
